Experimental data taken from publication PMC10714399, “Open Source Antibiotics: Simple Diarylimidazoles Are Potent against Methicillin-Resistant Staphylococcus aureus” (ACS Infectious Diseases, 2023).
In brackets after ≈: the same amount, converted by molar mass.

Legend:
[1] = Aqueous solubility; assay type: physicochemical; conditions: NEU; for solubility: thermodynamic from solid, read-out: Aqueous Solubility (NEU)
Source text: To guide our initial SAR exploration work, we obtained liver microsomal intrinsic clearance data for 5 of the 18 compounds assayed by CO-ADD (Supporting Information - CDCO Report and Supporting Information - Biology). We then acquired intrinsic clearance (CLint), plasma protein binding (PPB), and solubility data on further compounds throughout the SAR campaign (Supporting Information - Biology, Tables S3 and S4). […] The more polar compounds (lower LogD) had reduced PPB and were more metabolically stable.
(§1) Table S4. ADME and Pharmacokinetics: compounds only appearing in the Supplementary […]
(§2) MRSA Aqueous HLM CLint Rat Hep CLint
(§3) Cmpd MIC Solubility Human PPB (%) (µL/min/mg (µL/min/10x6 LogD7.4
(§4) (µg/mL) (µM) protein) cells)
(§5) ADME and toxicity for compounds were measured according to procedures outlined in the manuscript submitted in parallel to this one;2 other procedures were used for those compounds analysed by Monash University (in vitro ADME) or UCL (toxicity), both described in the main

[2] = Human liver microsome intrinsic clearance; assay type: in vitro ADME; conditions: human liver microsomes, NEU
Source text: (§6) To guide our initial SAR exploration work, we obtained liver microsomal intrinsic clearance data for 5 of the 18 compounds assayed by CO-ADD (Supporting Information - CDCO Report and Supporting Information - Biology). We then acquired intrinsic clearance (CLint), plasma protein binding (PPB), and solubility data on further compounds throughout the SAR campaign (Supporting Information - Biology, Tables S3 and S4).
as §1, §2, §3, §4, §5

[3] = tested on: Staphylococcus aureus NCTC 13373 (mecA-positive; methicillin-resistant); assay: In vitro antibacterial activity, MIC (UCL School of Pharmacy assay), MRSA; assay type: cell-based; conditions: Staphylococcus aureus, UCL; read-out: MRSA MIC (UCL)
In short: (§7)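 Growth inhibition was read as MIC across a two-fold range of 32 down to 0.03 μg/mL in isosensitest broth. Bacteria from overnight plates were set to A600 0.1 in PBS, about 1 × 10^8 CFU/mL, and diluted 1:100 before inoculation.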

[4] = Human plasma protein binding (PPB); assay type: in vitro ADME; conditions: human, plasma, human plasma, NEU; read-out: Human PPB (NEU) (converted)
Source text: as §6, §1, §2, §3, §4, §5

[5] = Rat hepatocyte intrinsic clearance; assay type: in vitro ADME; conditions: rat hepatocytes, NEU
Source text: as §6, §1, §2, §3, §4, §5

[6] = tested on: Enterococcus faecalis ATCC 51299 (vanA-positive; vancomycin-resistant); assay: In vitro antibacterial activity, MIC (UCL), VRE; assay type: cell-based; conditions: read-out: VRE MIC (UCL)
Method: Staphylococcus aureus NCTC 13373 (mecA-positive; methicillin-resistant, NCTC 13373) was supplied by the National Collection of Type Cultures (NCTC), Public Health England, United Kingdom. Other organisms, S. aureus ATCC 25923 (methicillin-susceptible) and Enterococcus faecalis ATCC 51299 (vanA-positive; vancomycin-resistant), were obtained from the American Type Culture Collection (ATCC) via LGC Standards, UK. A suspension of each organism was prepared from an overnight plate culture (tryptone soya agar) in phosphate-buffered saline (PBS) and adjusted to an absorbance reading at 600 nm of 0.1, which is approximately equivalent to 1 × 10^8 colony-forming units (CFU) per mL. The cultures were further diluted 1:100 in isosensitest broth (Oxoid, United Kingdom) before 100 μL was used to inoculate each well of a 96-well plate that contained diluted samples of the OSA series. Compounds were evaluated over a 2-fold dilution range from 32 to 0.03 μg/mL. Stocks of the samples were prepared in 100% DMSO at […] before being diluted in isosenstitest broth. The highest concentration of DMSO present was 2%, which has been previously shown not to inhibit the growth of the microorganisms (data not shown). […] Vancomycin was used as a quality control compound.

[7] = tested on: MRC-5SV2 (human lung fibroblast cell line); assay: Toxicity against MRC-5SV2; assay type: cell-based; conditions: MRC5 cells
Method: as §5

[8] = tested on: PMM (primary mouse macrophages); assay: Toxicity against PMM; assay type: cell-based; conditions: PMM
Method: as §5

[9] = tested on: S. aureus ATCC 25923 (methicillin-susceptible); assay: In vitro antibacterial activity, MIC (UCL), MSSA; assay type: cell-based, Staphylococcus aureus; conditions: Staphylococcus aureus; read-out: MSSA MIC (UCL)
In short: as §7

| solubility [1] | HLM CLint (NEU) [2] | MIC [3] | fraction unbound [4] | Rat Hep CLint (NEU) [5] | Aqueous Solubility (NEU) [1] | MIC [6] | microsomal CLint ([2]; read-out: HLM CLint (NEU)) | MIC [9] | SMILES | MRC5 TC50 [7] | PMM TC50 [8] |
| --- | --- | --- | --- | --- | --- | --- | --- | --- | --- | --- | --- |
| 3 µM (≈ 1.1 µg/mL) | 42.6 uL/min/mg protein | 8 µg/mL (≈ 21.8 µM) | 0.0008 | 151 uL/min/10x6 cells | – | – | – | – | c1ccc(-c2nc3n(c2-c2ccc4sc5ccccc5c4c2)CCC3)nc1 [OSA_000831] | – | – |
| 10 µM (≈ 3.32 µg/mL) | 34.1 uL/min/mg protein | 32 µg/mL (≈ 96.3 µM) | 0.098 | 49.1 uL/min/10x6 cells | – | – | – | – | Cc1nc2cc(-c3c(-c4ccccn4)nc4n3CCC4)ccc2s1 [OSA_000836] | – | – |
| – | <3 uL/min/mg protein | > 32 µg/mL | 0.4 | <1 uL/min/10x6 cells | 317 µM | > 32 µg/mL | – | – | CS(=O)(=O)c1ccc(-c2c(-c3ccccn3)nc3n2CCC3)cc1 [OSA_000837] | – | – |
| – | <3 uL/min/mg protein | > 32 µg/mL | 0.45 | <1 uL/min/10x6 cells | 756 µM | > 32 µg/mL | – | – | C[S+]([O-])c1ccc(-c2c(-c3ccccn3)nc3n2CCC3)cc1 (stereo not drawn) [OSA_000838] | – | – |
| 37 µM (≈ 10.6 µg/mL) | 43.7 uL/min/mg protein | > 32 µg/mL | 0.24 | 23.2 uL/min/10x6 cells | – | > 32 µg/mL | – | – | N#Cc1cccc(-c2c(-c3ccccn3)nc3n2CCC3)c1 [OSA_000864] | – | – |
| 38 µM (≈ 13.1 µg/mL) | 62.2 uL/min/mg protein | 8 µg/mL (≈ 23.2 µM) | 0.044 | 54.1 uL/min/10x6 cells | – | 32 µg/mL (≈ 92.7 µM) | – | – | FC(F)(F)Oc1ccc(-c2c(-c3ccccn3)nc3n2CCC3)cc1 [OSA_000868] | – | – |
| – | – | > 32 µg/mL | – | – | – | > 32 µg/mL | – | – | Fc1cccc(-c2c(-c3ccccn3)nc3n2CCC3)c1 [OSA_000872] | 7.2 µM | 54.63 µM |
| 4 µM (≈ 1.18 µg/mL) | – | 4 µg/mL (≈ 13.5 µM) | 0.033 | 21.9 uL/min/10x6 cells | – | 16 µg/mL (≈ 54.1 µM) | 168 µL/min/mg | – | Clc1ccc(-c2c(-c3ccccn3)nc3n2CCC3)cc1 [OSA_000875] | 5.45 µM | 8 µM |
| 3 µM (≈ 0.991 µg/mL) | 100 uL/min/mg protein | 8 µg/mL (≈ 24.2 µM) | 0.015 | 37.7 uL/min/10x6 cells | – | 8 µg/mL (≈ 24.2 µM) | – | – | Clc1ccc(-c2c(-c3ccccn3)nc3n2CCC3)cc1Cl [OSA_000876] | – | – |
| – | <3 uL/min/mg protein | > 32 µg/mL | 0.55 | <1 uL/min/10x6 cells | 782 µM | > 32 µg/mL | – | – | CN(C)C(=O)c1ccc(-c2c(-c3ccccn3)nc3n2CCC3)cc1 [OSA_000974] | – | – |
| – | 99.1 uL/min/mg protein | 4 µg/mL (≈ 14 µM) | 0.29 | 7.99 uL/min/10x6 cells | 38 µM | 16 µg/mL (≈ 55.9 µM) | – | – | N#Cc1ccc(-c2c(-c3ccccn3)nc3n2CCC3)cc1 [OSA_000975] | 25.9 µM | 64 µM |
| 556 µM (≈ 153 µg/mL) | 76.1 uL/min/mg protein | 8 µg/mL (≈ 29.1 µM) | 0.061 | 62.5 uL/min/10x6 cells | – | 32 µg/mL (≈ 116 µM) | – | – | Cc1cccc(-c2c(-c3ccccn3)nc3n2CCC3)c1 [OSA_000976] | – | – |
| 116 µM (≈ 37.3 µg/mL) | – | 16 µg/mL (≈ 49.8 µM) | – | – | – | – | – | 16 µg/mL (≈ 49.8 µM) | [2H]C([2H])([2H])N(c1ccc(F)cc1)c1c(-c2ccccn2)nc2ccccn12 [OSA_001002] | – | – |
